Experimental data published in the supplement of paper PMC11451515.

How the values were obtained:
Test in all cases: AUC of viability dose-response curve (% viability x log10 dose units); higher = less sensitive
Details in all cases: 48 h
[1] = test system: NOMO1
How it was run: (§1)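 Viability of medium-adapted leukemia cells was measured by CellTiter-Glo One luminescence after 48 h at 37°C with library compounds in DMSO. Doses were 11 threefold steps from 47 μM to 0.79 nM, in 1536-well plates at 500 or 1000 cells/well. Signals were normalised per plate to DMSO and cell-free wells and fitted with a four-parameter log-logistic model on log10 dose. Area under the curve was integrated by trapezoidal rule, with curves exceeding full viability scaled and failed quality-control curves removed.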

[2] = test system: P12-Ichikawa
How it was run: as §1

[3] = test system: SEM cells
How it was run: as §1

[4] = RPMI 5 mM glucose + 10% dialyzed FBS

Row | SMILES | AUC of viability dose-response curve ([1]; HPLM + 10% dialyzed FBS) | AUC of viability dose-response curve ([1]; RPMI 5 mM glucose + 10% FBS) | AUC of viability dose-response curve [1, 4] | AUC of viability dose-response curve ([2]; HPLM + 10% dialyzed FBS) | AUC of viability dose-response curve ([2]; RPMI 5 mM glucose + 10% FBS) | AUC of viability dose-response curve [2, 4] | AUC of viability dose-response curve ([3]; HPLM + 10% dialyzed FBS) | AUC of viability dose-response curve ([3]; RPMI 5 mM glucose + 10% FBS) | AUC of viability dose-response curve [3, 4]
1 | COc1cc(C[C@@H](CO)[C@H](CO)Cc2ccc(O)c(OC)c2)ccc1O | 467 | 456 | 476 | 464 | 457 | 439 | 452 | 444 | 455
2 | NC(=O)N1CCC(CC(=O)N2CCC([C@H]3c4ncc(Br)cc4CCc4cc(Cl)cc(Br)c43)CC2)CC1 | 442 | 439 | 432 | 413 | 395 | 410 | 363 | 355 | 395
3 | c1ccc2c(CN3CCNCC3)cccc2c1 | 462 | 455 | 456 | – | – | – | 465 | 473 | 454
4 | CC(C)(C)NCC(O)c1ccc(O)c(CO)c1 (configuration not stated) | 388 | 420 | 399 | 438 | 431 | 442 | 474 | 461 | 470
5 | NC[C@H](O)c1ccc(O)c(O)c1 | 411 | 452 | 427 | 460 | 457 | 439 | 443 | 453 | 456
6 | COc1cc2c(cc1OC)CN(CCc1ccc(NC(=O)c3cccc4c(=O)c5cccc(OC)c5[nH]c34)cc1)CC2 | 348 | 391 | 395 | 326 | 372 | 366 | 380 | 276 | 320
7 | CC[C@H](C)C(=O)O[C@H]1C[C@@H](C)\C=C2\C=C/[C@H](C)[C@H](CC[C@@H]3C[C@@H](O)CC(=O)O3)[C@@H]12 | 437 | 411 | 411 | 415 | 373 | 379 | 384 | 386 | 408
8 | C[S+](=O)([O-])N1CCN(Cc2cc3nc(-c4cccc5[nH]ncc45)nc(N4CCOCC4)c3s2)CC1 | 381 | 421 | 384 | 428 | 420 | 414 | 356 | 348 | 348
9 | CC1(C)[C@@H](O)CC[C@@]2(C)[C@H]1CC[C@]3(C)[C@@H]2C(=O)\C=C/4[C@@H]5C[C@](C)(CC[C@]5(C)CC[C@@]34C)C(O)=O | 465 | 448 | 460 | 464 | 468 | 461 | 468 | 470 | 477
10 | Cc1noc(N[S+](=O)([O-])c2ccc(N)cc2)c1C | 464 | 457 | 426 | 460 | 468 | 463 | 448 | 457 | 456
11 | CN1CCC(CNc2ccc3ncc(-c4cccc(OC(F)(F)F)c4)n3n2)CC1 | 429 | 399 | 425 | 449 | 435 | 420 | 329 | 334 | 340
12 | COc1cccc(N(C)C(=S)Oc2ccc3c(c2)CCCC3)n1 | 465 | 441 | 444 | 469 | 470 | 455 | 389 | 445 | 452
13 | O=C(NOCC1CC1)c1ccc(F)c(F)c1Nc1ccc(I)cc1Cl | 362 | 389 | 382 | 447 | 429 | 450 | 455 | 440 | 434
14 | C/C=C(\C)C(=O)N[C@@H](c1ccccc1)[C@@H](O)C(=O)O[C@H]1C[C@@]2(O)[C@@H](OC(=O)c3ccccc3)[C@@H]3[C@]4(OC(C)=O)CO[C@@H]4C[C@H](O)[C@@]3(C)C(=O)[C@H](OC(C)=O)C(=C1C)C2(C)C | – | – | – | 102 | 85.3 | 130 | 104 | 85.3 | 87.7
15 | COc1cc2c(cc1O)CCC1C2CC[C@@]2(C)C1CC[C@@H]2O (some centres not stated) | 390 | 412 | 404 | 359 | 368 | 382 | – | – | –
16 | CC(C)[C@H](C(=O)Nc1ccc(C(=O)NO)cc1)c1ccccc1 | 361 | 368 | 364 | 351 | 346 | 350 | 340 | 346 | 342
17 | CCOc1ccccc1N/N=C1/C(=O)N(c2nc(-c3ccccc3)cs2)N=C1C | 428 | 447 | 419 | 444 | 467 | 450 | 368 | 371 | 358
18 | c1coc(CNc2ncnc3nc[nH]c23)c1 | 455 | 461 | 445 | 437 | 464 | 467 | 460 | 469 | 473
19 | C/C1=C/C(=C(/CNC(=O)C2=CC(=CC3=C2C=N[N]3C4CCCC4)C5=CC=C(CN6CCOCC6)C=C5)C(=O)N1)C | 448 | 456 | 451 | 456 | 462 | 452 | – | – | –
20 | CCOc1cc(C(=O)Nc2ccc(Cl)c(-c3nc4ccccc4[nH]3)c2)cc(OCC)c1OCC | 475 | 410 | 431 | 431 | 418 | 387 | 378 | 392 | 371
21 | CCCCCN(C)CCC(O)(P(=O)([O-])O)P(=O)(O)O | 421 | 439 | 423 | 447 | 426 | 409 | 357 | 384 | 367
22 | OC[C@H]1OC(O)C[C@@H](O)[C@@H]1O (some centres not stated) | 463 | 466 | 466 | 463 | 470 | 475 | 439 | 441 | 447
23 | CC(C)[C@]12O[C@H]1[C@@H]3O[C@@]34[C@@]5(C)CC\C6=C(COC6=O)/[C@@H]5C[C@@H]7O[C@]47[C@@H]2O | 49.2 | 49 | 45.7 | 59 | 56.8 | 62.8 | – | – | –
24 | c1cc2c(cc1[C@H]1OC[C@H]3[C@@H]1CO[C@@H]3c1ccc3c(c1)OCO3)OCO2 | 467 | 462 | 456 | 470 | 452 | 473 | 468 | 454 | 455

Row | SMILES | AUC of viability dose-response curve ([1]; HPLM + 10% dialyzed FBS) | AUC of viability dose-response curve ([1]; RPMI 5 mM glucose + 10% FBS) | AUC of viability dose-response curve [1, 4] | AUC of viability dose-response curve ([2]; HPLM + 10% dialyzed FBS) | AUC of viability dose-response curve ([2]; RPMI 5 mM glucose + 10% FBS) | AUC of viability dose-response curve [2, 4] | AUC of viability dose-response curve ([3]; HPLM + 10% dialyzed FBS) | AUC of viability dose-response curve ([3]; RPMI 5 mM glucose + 10% FBS) | AUC of viability dose-response curve [3, 4]
25 | Cc1cccc(-c2[nH]c(C(C)(C)C)nc2-c2ccc3nccnc3c2)n1 | 460 | 430 | 455 | 459 | 458 | 424 | 444 | 383 | 443
26 | Cc1cc(/C=c2/sc3nc4ccccc4n3c2=O)c(C)n1-c1ccccc1 | 472 | 455 | 472 | 471 | 476 | 467 | 473 | 466 | 473
27 | CN(CC(=O)N(Cc1ccc(C2CCCCC2)cc1)c1ccc(C(=O)O)c(O)c1)[S+](=O)([O-])c1c(F)c(F)c(F)c(F)c1F | 447 | 408 | 440 | 440 | 462 | 421 | 432 | 404 | 405
28 | Cn1cnc(N)c2ncnc1-2 | 375 | 406 | 398 | 396 | 395 | 399 | 367 | 326 | 362
29 | C#CCC(Cc1cnc2nc(N)nc(N)c2n1)c1ccc(C(=O)N[C@@H](CCC(=O)O)C(=O)O)cc1 (some centres not stated) | 307 | 380 | 265 | 227 | 250 | 228 | 274 | 358 | 232
30 | CC(C)C[C@H](CC(=O)O)C(=O)N[C@@H](Cc1c[nH]c2ccccc12)C(=O)N[C@@H](C)c1ccccc1 | 428 | 446 | 465 | 413 | 419 | 421 | – | – | –
31 | CC(C)[C@H]1C(=O)N[C@H](CO)Cc2c[nH]c3cccc(c23)N1C | 393 | 404 | 405 | 446 | 411 | 401 | 396 | 379 | 442
32 | C[C@]12CC[C@H]3[C@@H](CC[C@@]45O[C@@H]4C(O)=C(C#N)C[C@]35C)[C@@H]1CC[C@@H]2O | 457 | 458 | 456 | 454 | 454 | 454 | 446 | 363 | 416
33 | CC1=CC/2=C(C=C1C)N(C[C@@H](O)[C@@H](O)[C@@H](O)CO)C/3=N/C(=O)NC(=O)C3=N2 | 462 | 472 | 460 | 458 | 449 | 451 | 474 | 428 | 474
34 | Clc1ccc(CCC(Cn2ccnc2)Sc2c(Cl)cccc2Cl)cc1 (configuration not stated) | 449 | 402 | 432 | 450 | 444 | 404 | 366 | 422 | 408
35 | COC(=O)CCC1=C(C)C2=CC3=NC(=CC4=C(C)C(=C([NH]4)C=C\5N=C(C=C1[NH]2)\C(=C5C)CCC(O)=O)C=C)\C6=C\C=C(/[C@@H](C(=O)OC)[C@@]36C)C(=O)OC | 393 | 433 | 397 | 469 | 450 | 457 | 428 | 441 | 473
36 | CCOC(=O)c1c(CSc2ccccc2)n(C)c2cc(Br)c(O)c(CN(C)C)c12 | 471 | 461 | 450 | 464 | 461 | 464 | 463 | 459 | 469
37 | O=C1\C=C(OC2=C(C=CC=C12)C3=CC=CC4=C3SC5=C4C=CC=C5)\N6CCOCC6 | 474 | 464 | 467 | 471 | 456 | 469 | 446 | 425 | 432
38 | O=C(CCCN1CCC(O)(c2ccc(Cl)cc2)CC1)c1ccc(F)cc1 | 467 | 471 | 470 | 459 | 466 | 470 | – | – | –
39 | O=C1c2ccccc2-c2n[nH]c3cccc1c23 | 429 | 433 | 449 | 416 | 401 | 422 | – | – | –
40 | CC(=O)N(O)CCCCCNC(=O)CCC(=O)N(O)CCCCCNC(=O)CCC(=O)N(O)CCCCCN.C[S+](=O)([O-])O | 204 | 199 | 261 | 115 | 225 | 249 | – | – | –
41 | CCC(=O)NC[C@H](Cc1ccc(OCCc2nc(-c3ccccc3)oc2C)cc1)N/C(C)=C\C(=O)c1ccc(C(F)(F)F)cc1 | 433 | 438 | 462 | 410 | 406 | 398 | – | – | –
42 | CCC(=O)O[C@@]1(CC[C@H]2[C@@H]3CCC/4=C/C(=O)CC[C@]4(C)[C@H]3CC[C@]12C)C(=O)CO | 457 | 467 | 458 | 454 | 452 | 455 | – | – | –
43 | COc1c(N2C[C@@H]3CCCN[C@@H]3C2)c(F)cc2c(=O)c(C(=O)O)cn(C3CC3)c12.Cl.O | 390 | 456 | 437 | 434 | 394 | 399 | – | – | –
44 | N#CC1(c2cccc(C(=O)Nc3cc(Oc4ccc5nc(NC(=O)C6CC6)sc5n4)ccc3F)c2Cl)CC1 | 344 | 370 | 327 | 372 | 362 | 369 | – | – | –
45 | COc1cc2cc(c1Cl)N(C)C(=O)C[C@H](OC(=O)C(C)C)[C@]1(C)O[C@@H]1[C@H](C)[C@@H]1C[C@@](O)(NC(=O)O1)[C@H](OC)/C=C/C=C(\C)C2 | – | – | – | 37.9 | 42.6 | 59.7 | 66.3 | 51.6 | 49.3
46 | CCC[C@H](Nc1nc(-c2ccc(NC(=O)NCC)c(OC)c2)ncc1C)c1cccnc1 | 287 | 251 | 251 | 195 | 194 | 205 | – | – | –
47 | COc1cc(N2CCC(N3CCN(C)CC3)CC2)ccc1Nc1ncc(Cl)c(Nc2ccccc2[S+](=O)([O-])C(C)C)n1 | – | – | – | – | – | – | 284 | 273 | 300
